Data on 15 compounds can be found in patent US20220378923A1, “BET DEGRADER” (KYOWA KIRIN CO., LTD., priority 2019, published 2022).

Test [1] relates to DCAF16 KO SU-DHL-4 cells. As to the kind of experiment: Inhibitory effect on cell viability using SU-DHL-4 DCAF16 knock out (KO) cell line (Test Example 6). In kind it is cell-based, human. The note with it: for Activity Attenuation Ratio: (SU-DHL-4 DCAF16 KO IC50)/(SU-DHL-4 WT IC50); for pIC50: DCAF16 KO SU-DHL-4 cells, 72 hours, Cell Counting Kit-8, 50% inhibition of cell viability. The procedure, abridged: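 SU-DHL-4 DLBCL cells carrying lentiviral Cas9 plus DCAF16-targeting sgRNA (three KO strains; non-targeting control strain), seeded 2000 cells/well, pre-cultured 18–25 h, then given 9-step compound dilutions (0.1% DMSO final) for 72 h at 37° C. Viability read by CCK-8 colorimetric assay.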

Test [2] concerns SU-DHL-4 cells. The experiment in a line: Inhibitory effect on cell viability in SU-DHL-4 cell line (Test Example 1). In kind it is cell-based, human. The note with it: 72 hours; for pIC50: SU-DHL-4 (wild type) cells, calculated using the measurement results of test example 1, read-out: SU-DHL-4 WT IC50; for IC90: SU-DHL-4 cells, Cell Counting Kit-8, concentration showing 90% inhibition of cell viability, read-out: SU-DHL-4 Cell Viability Inhibition Rate IC90. The procedure, abridged:
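SU-DHL-4 cells were grown at 37° C. under 5% CO2 in RPMI1640 with 10 vol % heat-inactivated FBS plus penicillin/streptomycin, seeded and precultured for 18 to 25 hours, then exposed to test compound at 0.1 vol % DMSO for 72 hours. Viability was read with Cell Counting Kit-8 by absorbance at 450 nm.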

Molecules are shown by their SMILES. pIC50: −log10 of the molar value. Like-named read-outs stand apart in the source and are kept apart here.

With `CCC(=O)N1c2ccccc2[C@H](Nc2ccc(NC(=O)CCCC(=O)Nc3ccc(C(=O)N4CCC(=O)Nc5ccccc54)cc3)cc2)C[C@@H]1C` [Compound 16o, N^1-(4-(((2S,4R)-2-Methyl-1-propionyl-1,2,3,4-tetrahydroquinolin-4-yl)amino)phenyl)-N5-(4-(4-oxo-2,3,4,5-tetra hydro-1H-benzo[b][1,4]diazepine-1-carbonyl)phenyl)glutaramide], in test [1], the “Activity Attenuation Ratio” value was 96. This compound also had a pIC50 in test [1] (Homo sapiens) of 5.62. Further, in test [2] (Homo sapiens), the pIC50 is 7.60 and the IC90 is 80.3 nM.
Consider `CCC(=O)N1c2ccccc2[C@H](Nc2ccc(NC(=O)C3CN(C(=O)c4ccc(N[C@@H]5C[C@H](C)N(C(=O)CC)c6ccccc65)cc4)C3)cc2)C[C@@H]1C` (relative stereo) [Compound 2h, 1-(4-{[(2S,4R)-2-Methyl-1-propionyl-1,2,3,4-tetrahydroquinolin-4-yl]amino}benzoyl)-N-(4-{[(2S*,4R*)-2-methyl-1-propionyl-1,2,3,4-tetrahydroquinolin-4-yl]amino}phenyl)azetidine-3-carboxamide], for which the “Activity Attenuation Ratio” value in test [1] was determined as 408. Besides, the results for the pIC50 in test [1] (Homo sapiens) and in test [2] (Homo sapiens) were 7.91 and 10.52, respectively.
For the compound `CCC(=O)N1c2ccccc2[C@H](N[C@H]2CC[C@H](NC(=O)C#CCNC(=O)[C@H]3CC[C@H](N[C@@H]4C[C@H](C)N(C(=O)CC)c5ccccc54)CC3)CC2)C[C@@H]1C` (relative stereo) [Compound 9d, (1R,4R)-4-(((2S*,4R*)-2-Methyl-1-propionyl-1,2,3,4-tetrahydroquinolin-4-yl)amino)-N-(4-(((1R,4R)-4-(((2S,4R)-2-methyl-1-propionyl-1,2,3,4-tetrahydroquinolin-4-yl)amino)cyclohexyl)amino)-4-oxobut-2-yn-1-yl)cyclohexane-1-carboxamide], in test [1], the “Activity Attenuation Ratio” value is listed as 348 and the pIC50 is 6.58. In test [2], the pIC50 is 9.12 and the IC90 stood at 0.93 nM.
Take `CCC(=O)N1c2ccccc2[C@H](NCC23CCC(C(=O)N4CC(C(=O)Nc5ccc(N[C@@H]6C[C@H](C)N(C(=O)CC)c7ccccc76)cc5)C4)(CC2)CC3)C[C@@H]1C` (relative stereo) [Compound 17o, 1-(4-((((2S,4R)-2-Methyl-1-propionyl-1,2,3,4-tetrahydroquinolin-4-yl)amino)methyl)bicyclo[2.2.2]octane-1-carbonyl)-N-(4-(((2S*,4R*)-2-methyl-1-propionyl-1,2,3,4-tetrahydroquinolin-4-yl)amino)phenyl)azetidine-3-carboxamide]: the “Activity Attenuation Ratio” value in test [1] came to 670. This compound also had a pIC50 in test [1] (Homo sapiens) of 6.28. Further, in test [2] (Homo sapiens), the pIC50 is 9.11 and the IC90 worked out at 2.18 nM.
Regarding `CCC(=O)N1c2ccccc2[C@H](Nc2ccc(CCCC(=O)Nc3ccc(N[C@@H]4C[C@H](C)N(C(=O)CC)c5ccccc54)cc3)cc2)C[C@@H]1C` [Compound 5r, N,4-Bis(4-(((2S,4R)-2-methyl-1-propionyl-1,2,3,4-tetrahydroquinolin-4-yl)amino)phenyl)butanamide], the “Activity Attenuation Ratio” value in test [1] came out at 30. Besides, the pIC50 in test [1] (Homo sapiens) was 7.80; in test [2] (Homo sapiens), 9.28.
Take `CCC(=O)N1c2ccccc2[C@H](Nc2ccc(-n3cc(CNC(=O)N4CCC(N[C@@H]5C[C@H](C)N(C(=O)CC)c6ccccc65)CC4)nn3)cc2)C[C@@H]1C` (relative stereo) [Compound 10b, 4-(((2S*,4R*)-2-Methyl-1-propionyl-1,2,3,4-tetrahydroquinolin-4-yl)amino)-N-((1-(4-(((2S,4R)-2-methyl-1-propionyl-1,2,3,4-tetrahydroquinolin-4-yl)amino)phenyl)-1H-1,2,3-triazol-4-yl)methyl)piperidine-1-carboxamide]: the “Activity Attenuation Ratio” value in test [1] came out at 524. In addition, the pIC50 is 6.74 in test [1] (Homo sapiens) and 9.47 in test [2] (Homo sapiens).
As to `CCC(=O)N1c2ccccc2[C@H](Nc2ccc(NC(=O)CNCC(=O)Nc3ccc(N[C@@H]4C[C@H](C)N(C(=O)CC)c5ccccc54)cc3)cc2)C[C@@H]1C` [Compound 5d, 2,2′-Azanediylbis(N-(4-(((2S,4R)-2-methyl-1-propionyl-1,2,3,4-tetrahydroquinolin-4-yl)amino)phenyl)acetamide)], in test [1], the “Activity Attenuation Ratio” value came to 546. Further, the pIC50 in test [1] (Homo sapiens) is 6.78; in test [2] (Homo sapiens) it was 9.51.
As for `CCC(=O)N1c2ccccc2C(Nc2ccc(NC(=O)C#CCNC(=O)c3ccc(N[C@@H]4C[C@H](C)N(C(=O)CC)c5ccccc54)cc3)cc2)CC1C` (stereo partly drawn) [Compound 6h, 4-(((2S,4R)-2-Methyl-1-propionyl-1,2,3,4-tetrahydroquinolin-4-yl)amino)-N-(4-((4-((2-methyl-1-propionyl-1,2,3,4-tetrahydroquinolin-4-yl)amino)phenyl)amino)-4-oxobut-2-yn-1-yl)benzamide], in test [1], the “Activity Attenuation Ratio” value came out at 2250. For the same compound, the pIC50 is 8.17 in test [1] (Homo sapiens) and 11.52 in test [2] (Homo sapiens).
On the same counts, the results for `CCC(=O)N1c2ccccc2[C@H](Nc2ccc(NC(=O)CCSc3ccc(N[C@@H]4C[C@H](C)N(C(=O)CC)c5ccccc54)cc3)cc2)C[C@@H]1C` (relative stereo) [Compound 4e, N-(4-{[(2S*,4R*)-2-Methyl-1-propionyl-1,2,3,4-tetrahydroquinolin-4-yl]amino}phenyl)-3-[(4-{[(2S,4R)-2-methyl-1-propionyl-1,2,3,4-tetrahydroquinolin-4-yl]amino}phenyl)thio]propanamide] are 250, 7.12 and 9.52.
`Cc1sc2c(c1C)C(c1ccc(C(=O)NCCCNC(=O)c3ccc(C4=N[C@@H](CC(=O)OC(C)(C)C)c5nnc(C)n5-c5sc(C)c(C)c54)cc3)cc1)=N[C@@H](CC(=O)OC(C)(C)C)c1nnc(C)n1-2` [Compound 1b, Di-tert-butyl 2,2′-[(6S,6′S)-({[propane-1,3-diylbis(azanediyl)]bis(carbonyl)}bis(4,1-phenylene))bis(2,3,9-trimethyl-6H-thieno[3,2-f][1,2,4]triazolo[4,3-a][1,4]diazepine-4,6-diyl)]diacetate]: in test [1], the “Activity Attenuation Ratio” value turned out to be 56. In addition, the pIC50 in test [1] (Homo sapiens) is 7.44; in test [2] (Homo sapiens), 9.19.
As for `CCC(=O)N1c2ccccc2[C@H](Nc2ccc(NC(=O)CCCC(=O)Nc3cccc(Oc4ccccc4-c4cn(C)c(=O)cc4OC)c3)cc2)C[C@@H]1C` [Compound 16m, N^1-(3-(2-(4-Methoxy-1-methyl-6-oxo-1,6-dihydropyridin-3-yl)phenoxy)phenyl)-N5-(4-(((2S,4R)-2-methyl-1-propionyl-1,2,3,4-tetrahydroquinolin-4-yl)amino)phenyl)glutaramide], the “Activity Attenuation Ratio” value in test [1] is 338. Further, the pIC50 in test [1] (Homo sapiens) is 6.68. Besides, in test [2] (Homo sapiens), the pIC50 was 9.21 and the IC90 stood at 1.85 nM.
Take `CCC(=O)N1c2ccccc2[C@H](Nc2ccc(NC(=O)CCCC(=O)NC3CCN(Cc4cc(O)cc(-c5c(C)noc5C)c4)CC3)cc2)C[C@@H]1C` [Compound 12c, N^1-(1-(3-(3,5-Dimethylisoxazol-4-yl)-5-hydroxybenzyl)piperidin-4-yl)-N^5-(4-(((2S,4R)-2-methyl-1-propionyl-1,2,3,4-tetrahydroquinolin-4-yl)amino)phenyl)glutaramide]: in test [1], the “Activity Attenuation Ratio” value was greater than 44436. The same compound gave a pIC50 in test [1] (Homo sapiens) of less than 5.00. Besides, in test [2] (Homo sapiens), the pIC50 was 9.66 and the IC90 came to 0.56 nM.
Consider `CCC(=O)N1c2ccccc2[C@H](Nc2ccc(NC(=O)CCCC(=O)NC3CCC(N[C@@H]4C[C@H](C)N(C(=O)CC)c5ccccc54)CC3)cc2)C[C@@H]1C` (stereo partly drawn) [Compound 7o, N^1-((1R,4r)-4-(((2S,4R)-2-Methyl-1-propionyl-1,2,3,4-tetrahydroquinolin-4-yl)amino)cyclohexyl)-N^5-(4-(((2S,4R)-2-methyl-1-propionyl-1,2,3,4-tetrahydroquinolin-4-yl)amino)phenyl)glutaramide], for which, in test [1], the “Activity Attenuation Ratio” value came to 750 and the pIC50 is 6.40. Also, in test [2], the pIC50 was 9.28 and the IC90 came to 1.15 nM.
On to `CCC(=O)N1c2ccccc2[C@H](Nc2ccc(NC(=O)CCCC(=O)Nc3cccc(Oc4ccc(NS(=O)(=O)CC)cc4-c4cn(C)c(=O)cc4OC)c3)cc2)C[C@@H]1C` [Compound 16j, N^1-(3-(4-(Ethylsulfonamide)-2-(4-methoxy-1-methyl-6-oxo-1,6-dihydropyridin-3-yl)phenoxy)phenyl)-N5-(4-(((2S,4R)-2-methyl-1-propionyl-1,2,3,4-tetrahydroquinolin-4-yl)amino)phenyl)glutaramide], for which, in test [1], the “Activity Attenuation Ratio” value is given as 213 and the pIC50 was 6.97. Moreover, in test [2], the pIC50 was 9.30 and the IC90 was 3.09 nM.
With `CCC(=O)N1c2ccccc2[C@H](Nc2ccc(C(=O)NCc3cn(-c4ccc(N[C@@H]5C[C@H](C)N(C(=O)CC)c6ccccc65)cc4)nn3)cc2)C[C@@H]1C` [Compound 3a, 4-{[(2S,4R)-2-Methyl-1-propionyl-1,2,3,4-tetrahydroquinolin-4-yl]amino}-N-{[1-(4-{[(2S,4R)-2-methyl-1-propionyl-1,2,3,4-tetrahydroquinolin-4-yl]amino}phenyl)-1H-1,2,3-triazol-4-yl]methyl}benzamide], the “Activity Attenuation Ratio” value in test [1] is on record as 263. The figures for the pIC50 in test [1] (Homo sapiens) and in test [2] (Homo sapiens) were 8.18 and 10.60, respectively.
